Source: patent US11013235B2 (priority 2015, dated 2021)
Like-named read-outs stand apart in the source and are kept apart here.

Experiments:
Assay type in all cases: in vivo
Pratylenchus coffeae = test: Nematode control, nodules per plant: Pratylenchus coffeae; details: 1 μM foliar application every 5 days, evaluation 35 days after, control 42
Experimental: (§1) The solutions of the compounds were prepared in ethanol and diluted in water, up to a concentration of 1 μM for a foliar application. Applications were conducted every 5 days, spraying only the leafs with each compound. Ten plants were used for each treatment and the final evaluation was performed 35 days after, by quantifying the number of nodules per plant.

Rhizoctonia solani [1] = test: Control of Rhizoctonia solani disease in tomato (Rs-SI); details: 1 μM spraying every 24 hours for one week, water control 96
Experimental: (§2) In order to compare the effect of the compounds of formula I to V on the control of diseases in different plants, experiments were conducted in tobacco, tomato and Arabidopsis thaliana plants inoculated with Phytophthora parasitica, Rhizoctonia solani, Alternaria solani, Nocardia sp and Botrytis cinerea, respectively. The compounds were applied by spraying, at a concentration of 1 μM, every 24 hours for one week. The plant mortality rate was determined for the disease produced by Phytophthora parasitica, Rhizoctonia solani and Nocardia sp, while the percentage of leaves with symptoms was determined for the infection by Alternaria solani. In the case of plants affected by Botrytis cinerea, the lesion diameter was measured. […] Each treatment included fifty plants. As control, plants treated with water were studied. The plants of each treatment were previously inoculated with the indicated pathogens, according to different inoculation protocols (Frontiers in Plant Science 3: 268, 1-6, 2012), and later they were treated with the compounds.

Radopholus similis = test: Nematode control, nodules per plant: Radopholus similis; details: 1 μM foliar application every 5 days, evaluation 35 days after, control 45
Experimental: as §1

Phytophthora parasitica = test: Control of Phytophthora parasitica disease in tobacco (Pp-Nt); details: 1 μM spraying every 24 hours for one week, water control 91
Experimental: as §2

Alternaria solani = test: Control of Alternaria solani disease in tomato (As-SI); details: 1 μM spraying every 24 hours for one week, water control 68
Experimental: as §2

Nocardia sp = test: Control of Nocardia sp disease in tobacco (N-Nt); details: 1 μM spraying every 24 hours for one week, water control 58
Experimental: as §2

Botrytis cinerea [2] = test: Control of Botrytis cinerea disease in tomato (Bc-SI); details: 1 μM spraying every 24 hours for one week, water control 7.4
Experimental: as §2

Meloidogyne incognita = test: Nematode control, nodules per plant: Meloidogyne incognita; details: 1 μM foliar application every 5 days, evaluation 35 days after, control 34
Experimental: as §1

Botrytis cinerea [3] = test: Control of Botrytis cinerea disease in Arabidopsis (Bc-At); details: 1 μM spraying every 24 hours for one week, water control 8.7
Experimental: as §2

[4] = tested on: Candidatus 'Liberibacter asiaticus'; details: spraying every 15 days, 12 months after treatment, Citrus sinensis with HLB
Botrytis cinerea [5] = test: Control of Botrytis cinerea disease in tobacco (Bc-Nt); details: 1 μM spraying every 24 hours for one week, water control 6.7
Experimental: as §2

Rhizoctonia solani [6] = test: Control of Rhizoctonia solani disease in tobacco (Rs-Nt); details: 1 μM spraying every 24 hours for one week, water control 87
Experimental: as §2

Row | Compound | Pc: number of nodules per plant (Pratylenchus coffeae) | Rs-SI: percentage of mortality (Rhizoctonia solani [1]) [%] | Rs: number of nodules per plant (Radopholus similis) | Pp-Nt: percentage of mortality (Phytophthora parasitica) [%] | As-SI: percentage of leaves with the disease symptoms (Alternaria solani) [%] | N-Nt: percentage of mortality (Nocardia sp) [%] | Bc-SI: mean of the diameter of the lesion (Botrytis cinerea [2]) [mm] | Mi: number of nodules per plant (Meloidogyne incognita) | Bc-At: mean of the diameter of the lesion (Botrytis cinerea [3]) [mm] | Titers of the bacterium ([4]; 0.001 μM) [copies per reaction] | Titers of the bacterium ([4]; 0.01 μM) [copies per reaction] | Titers of the bacterium ([4]; 1 μM) [copies per reaction] | Titers of the bacterium ([4]; 5 μM) [copies per reaction] | Titers of the bacterium ([4]; 10 μM) [copies per reaction] | Bc-Nt: mean of the diameter of the lesion (Botrytis cinerea [5]) [mm] | Rs-Nt: percentage of mortality (Rhizoctonia solani [6]) [%]
1 | CC(O)C(O)CN1CCC(Oc2ccc(C(=O)N3CCCC3)cc2)CC1 (centres unmarked) [IVJ, 1-(4-{4-[(pyrrolidin-1-yl)carbonyl]phenoxy}piperidin-1-yl)butane-2,3-diol] | 18 | 3 | 16 | 1 | 1 | 1 | 1.6 | 2 | 1.1 | 435 | 7 | 3 | 45 | 9547 | 2.0 | 2
2 | O=C(CCc1cc2cc3c(C4CCCC4)coc3cc2oc1=O)NCC(O)CO (centres unmarked) [ID, 3-{6-cyclopentyl-2-oxo-2H-furo[3,2-g]chromen-3-yl}-N-(2,3-dihydroxypropyl)propanamide] | 11 | 2 | 0 | 0 | 8 | 1 | 2.5 | 0 | 1.5 | 123 | 0 | 0 | 123 | 5489 | 1.5 | 0
3 | CN1c2cc(C(=O)NC3CCCCC3)ccc2OCC1CC(=O)NC(CO)CO (centres unmarked) [VF, N-cyclohexyl-3-{[(1,3-dihydroxypropan-2-yl)carbamoyl]methyl}-4-methyl-3,4-dihydro-2H-1,4-benzoxazine-6-carboxamide] | 1 | 3 | 1 | 1 | 1 | 1 | 2.5 | 2 | 1.5 | 985 | 1 | 0 | 98 | 2365 | 1.5 | 2
4 | CNC(=O)c1ccc2c(c1)N(C)C(CC(=O)NC(CO)CO)CO2 (centres unmarked) [VB, 3-{[(1,3-dihydroxypropan-2-yl)carbamoyl]methyl}-N,4-dimethyl-3,4-dihydro-2H-1,4-benzoxazine-6-carboxamide] | 1 | 2 | 0 | 0 | 8 | 1 | 1.2 | 0 | 0.7 | 598 | 9 | 2 | 98 | 9854 | 0.9 | 0
5 | Cc1coc2cc3oc(=O)c(CCC(=O)NCC(O)CO)c(C)c3cc12 (centres unmarked) [IH, N-(2,3-dihydroxypropyl)-3-{4,6-dimethyl-2-oxo-2H-furo[3,2-g]chromen-3-yl}propanamide] | 11 | 3 | 19 | 1 | 1 | 1 | 1.6 | 21 | 1.1 | 658 | 8 | 12 | 68 | 4569 | 2.0 | 2
6 | CC1CCN(C(=O)c2ccc(OC3CCN(CC(O)CO)CC3)cc2)C1 (centres unmarked) [IVA, 3-(4-{4-[(3-methylpyrrolidin-1-yl)carbonyl]phenoxy}piperidin-1-yl)propane-1,2-diol] | 0 | 1 | 0 | 0 | 5 | 0 | 0.8 | 0 | 2.4 | 598 | 1 | 5 | 98 | 6521 | 1.5 | 0
7 | O=C(c1cnc(N2CCN(C3CCCCC3)CC2)nc1)N1CC2CC(O)C(O)CC2C1 (centres unmarked) [IIIE, 2-{[2-(4-cyclohexylpiperazin-1-yl)pyrimidin-5-yl]carbonyl}-octahydro-1H-isoindole-5,6-diol] | 0 | 0 | 0 | 0 | 7 | 0 | 0.8 | 0 | 0.5 | 657 | 7 | 0 | 67 | 8653 | 0.9 | 0
8 | CNC(=O)c1ccc2c(c1)NC(CC(=O)NC(CO)CO)CO2 (centres unmarked) [VA, 3-{[(1,3-dihydroxypropan-2-yl)carbamoyl]methyl}-N-methyl-3,4-dihydro-2H-1,4-benzoxazine-6-carboxamide] | 2 | 2 | 1 | 1 | 3 | 2 | 0.8 | 4 | 2.4 | 524 | 1 | 5 | 54 | 5478 | 1.5 | 4
